Test results from ChEMBL document CHEMBL5321216, “Discovery of bipyridine amide derivatives targeting pRXRα-PLK1 interaction for anticancer therapy” (Eur J Med Chem, 2023).
Calls of active or inactive are those of the source. The calls are words filed in the database; no cut-off is given here.

Legend:
A549 [1] = assay: Induction of cell cycle arrest in wild type human A549 cells assessed as accumulation of cells at G2 phase at 125 nM incubated for 12 hrs by DAPI staining based flow cytometry analysis (reference value: 21.99 %); format: functional
A549 [2] = assay: Induction of cell cycle arrest in human A549 cells assessed as accumulation of cells at S phase at 62.5 nM incubated for 12 hrs by flow cytometry analysis (reference value: 31.81%); format: functional
[3] = Toxicity in BALB/c mouse xenografted with human MDA-MB-231 cells assessed as lung damage at 25 mg/kg/day, ip administered for 15 days by H and E staining based analysis; format: organism-based; conditions: in vivo, 360 h, time 15 day
MDA-MB-231 [4] = assay: Induction of apoptosis in human MDA-MB-231 cells assessed as dead cells at 31.25 nM incubated for 24 hrs by annexin V-FITC/PI staining based flow cytometry analysis (reference value: 0.69%); format: functional
A549 [5] = assay: Induction of apoptosis in human A549 cells assessed as late apoptotic cells at 62.5 nM incubated for 24 hrs by annexin V-FITC/PI staining based flow cytometry analysis (reference value: 5.28%); format: functional
MDA-MB-231 [6] = assay: Inhibition of colony formation in human MDA-MB-231 cells at 62.5 nM incubated for 48 hrs followed by replacement with normal culture medium and measured after […] by crystal violet staining based assay relative to control; format: functional
A549 [7] = assay: Induction of cell cycle arrest in human A549 cells assessed as accumulation of cells at G2 phase at 15.625 nM incubated for 12 hrs by flow cytometry analysis (reference value: 8.62%); format: functional; conditions: 0.01562 µM
MDA-MB-231 [8] = assay: Induction of cell cycle arrest in human MDA-MB-231 cells assessed as accumulation of cells at S phase at 62.5 nM incubated for 12 hrs by flow cytometry analysis (reference value: 40.89%); format: functional
MCF7 = assay: Antiproliferative activity against human MCF7 cells assessed as inhibition of cell proliferation incubated for 72 hrs by MTT assay; format: functional, cell-based; conditions: MCF7, 72 h
[9] = Cytotoxicity against human HaCaT cells assessed as inhibition of cell proliferation incubated for 72 hrs by MTT assay; format: toxicity, cell-based
[10] = AUC (0 to infinity) in Sprague-Dawley rat at 25 mg/kg, ip measured for 48 hrs by LC-MS/MS analysis; format: ADME, organism-based; set-up: time 48 hrs, dose 25 mg/kg, route ip; conditions: in vivo
MDA-MB-231 [11] = assay: Induction of apoptosis in human MDA-MB-231 cells assessed as late apoptotic cells at 31.25 nM incubated for 24 hrs by annexin V-FITC/PI staining based flow cytometry analysis (reference value: 5.93%); format: functional
A549 [12] = assay: Antiproliferative activity against human A549 cells assessed as cell viability rate at 5 uM incubated for 72 hrs by MTT assay relative to control; format: functional
A549 [13] = assay: Induction of apoptosis in human A549 cells assessed as late apoptotic cells at 250 nM incubated for 24 hrs by annexin V-FITC/PI staining based flow cytometry analysis (reference value: 5.28%); format: functional
NCI-H460 = assay: Antiproliferative activity against human NCI-H460 cells assessed as inhibition of cell proliferation incubated for 72 hrs by MTT assay; format: functional, cell-based; conditions: NCI-H460, 72 h
[14] = Selectivity index, ratio of IC50 for human MCF7 cells to IC50 for human MDA-MB-231 cells; format: toxicity
[15] = Elimination half life in Sprague-Dawley rat at 25 mg/kg, ip measured for 48 hrs by LC-MS/MS analysis; format: ADME, organism-based; conditions: in vivo, read-out: beta t1/2 (converted)
MDA-MB-231 [16] = assay: Antitumor activity against human MDA-MB-231 cells xenografted in BALB/c nude mouse assessed as inhibition of tumor growth by measuring DNA damaging response at 12.5 to 25 mg/kg/day, ip administered for 15 days; format: functional, organism-based; conditions: dose 12.5-25 mg/kg/day, time 15.0 day
MDA-MB-231 [17] = assay: Induction of apoptosis in human MDA-MB-231 cells assessed as early apoptotic cells at 250 nM incubated for 24 hrs by annexin V-FITC/PI staining based flow cytometry analysis (reference value: 2.03%); format: functional
MDA-MB-231 [18] = assay: Induction of apoptosis in human MDA-MB-231 cells assessed as live cells at 31.25 nM incubated for 24 hrs by annexin V-FITC/PI staining based flow cytometry analysis (reference value: 91.3%); format: functional
MDA-MB-231 [19] = assay: Induction of apoptosis in human MDA-MB-231 cells assessed as live cells at 125 nM incubated for 24 hrs by annexin V-FITC/PI staining based flow cytometry analysis (reference value: 91.3%); format: functional
[20] = Drug absorption in KM mouse at 25 mg/kg, ip measured after 0.5 to 2 hrs; format: ADME, organism-based; conditions: in vivo, time 0.5-2 hrs
MDA-MB-231 [21] = assay: Induction of cell cycle arrest in human MDA-MB-231 cells assessed as accumulation of cells at G2 phase at 125 nM incubated for 12 hrs by flow cytometry analysis (reference value: 15.91%); format: functional
A549 [22] = assay: Induction of cell cycle arrest in RXRalpha knockout human A549 cells assessed as accumulation of cells at G2 phase at 125 nM incubated for 12 hrs by DAPI staining based flow cytometry analysis (reference value: 14.97%); format: functional
[23] = Drug absorption in KM mouse at 25 mg/kg, po measured after 0.5 to 2 hrs; format: ADME, organism-based; conditions: in vivo, time 0.5-2 hrs
A549 [24] = assay: Induction of apoptosis in human A549 cells assessed as dead cells at 31.25 nM incubated for 24 hrs by annexin V-FITC/PI staining based flow cytometry analysis (reference value: 0.75%); format: functional
MDA-MB-231 [25] = assay: Induction of cell cycle arrest in human MDA-MB-231 cells assessed as accumulation of cells at S phase at 15.625 nM incubated for 12 hrs by flow cytometry analysis (reference value: 40.89%); format: functional; conditions: 0.01562 µM
MDA-MB-231 [26] = assay: Induction of apoptosis in human MDA-MB-231 cells assessed as dead cells at 62.5 nM incubated for 24 hrs by annexin V-FITC/PI staining based flow cytometry analysis (reference value: 0.69%); format: functional
MDA-MB-231 [27] = assay: Antiproliferative activity against human MDA-MB-231 cells assessed as inhibition of cell proliferation incubated for 72 hrs by MTT assay; format: functional, cell-based; conditions: MDA-MB-231, 72 h
A549 [28] = assay: Antiproliferative activity against RXRalpha knockout human A549 cells assessed as inhibition of cell growth incubated for 72 hrs by MTT assay; format: functional, cell-based; conditions: A549, 72 h
MDA-MB-231 [29] = assay: Induction of apoptosis in human MDA-MB-231 cells assessed as dead cells at 250 nM incubated for 24 hrs by annexin V-FITC/PI staining based flow cytometry analysis (reference value: 0.69%); format: functional
MDA-MB-231 [30] = assay: Induction of apoptosis in human MDA-MB-231 cells assessed as early apoptotic cells at 125 nM incubated for 24 hrs by annexin V-FITC/PI staining based flow cytometry analysis (reference value: 2.03%); format: functional
[31] = Selectivity index, ratio of IC50 for human A549 cells to IC50 for human MDA-MB-231 cells; format: functional
MDA-MB-231 [32] = assay: Induction of apoptosis in human MDA-MB-231 cells assessed as early apoptotic cells at 62.5 nM incubated for 24 hrs by annexin V-FITC/PI staining based flow cytometry analysis (reference value: 2.03%); format: functional
[33] = Cytotoxicity against human MCF-10A cells assessed as inhibition of cell proliferation incubated for 72 hrs by MTT assay; format: toxicity, cell-based

Which Activity (A549 [1]) does the source give for `O=C(/C=C/c1ccccc1)Nc1cc(-c2ccnc(N3CCC(CO)CC3)c2)ccn1` here?
Its Activity is 79.66%.

What about the Activity (A549 [2]) of the same compound?
The Activity was 27.68%.

What about the Activity [3] of the same compound?
The Activity was “Non-Toxic”.

What about the Activity (MDA-MB-231 [4]) of the same compound?
The Activity was 0.93%.

What about the Activity (A549 [5]) of the same compound?
Its Activity is 18.2%.

What about the inhibition at 0.0625 µM (MDA-MB-231 [6]) of the same compound?
Its inhibition at 0.0625 µM is 100%.

What about the Activity (A549 [7]) of the same compound?
Its Activity is 8.95%.

And the Activity (MDA-MB-231 [8])?
The Activity was 16.51%.

What about the IC50 (MCF7) of the same compound?
Its IC50 is 2340 nM.

What about the IC50 at 72 h [9] of the same compound?
The IC50 at 72 h was 51 nM.

What about the AUC(0-inf) [10] of the same compound?
The AUC(0-inf) was 14600 ng·h/mL.

What about the Activity (MDA-MB-231 [11]) of the same compound?
Its Activity is 14.7%.

What about the Activity (A549 [12]) of the same compound?
Its Activity is 51.91%.

And the Activity (A549 [13])?
The Activity was 21.4%.

What about the IC50 (NCI-H460) of the same compound?
The IC50 was 253 nM.

And the “Ratio IC50” value [14]?
The value was 146.5.

What about the half-life [15] of the same compound?
The half-life was 2.23 h.

And the Activity (MDA-MB-231 [16])?
Its Activity is “Active”.

And the Activity (MDA-MB-231 [17])?
The Activity was 20.2%.

What about the Activity (MDA-MB-231 [18]) of the same compound?
The Activity was 82.2%.

What about the Activity (MDA-MB-231 [19]) of the same compound?
The Activity was 66.9%.

And the Drug absorption [20]?
The Drug absorption was “Active”.

What about the Activity (MDA-MB-231 [21]) of the same compound?
Its Activity is 85.88%.

And the Activity (A549 [22])?
The Activity was 45.99%.

What about the Drug absorption [23] of the same compound?
The Drug absorption was “Not Active”.

And the Activity (A549 [24])?
Its Activity is 3.98%.

What about the Activity (MDA-MB-231 [25]) of the same compound?
Its Activity is 41.47%.

What about the Activity (MDA-MB-231 [26]) of the same compound?
The Activity was 2.47%.

What about the IC50 (MDA-MB-231 [27]) of the same compound?
Its IC50 is 16 nM.

What about the IC50 (A549 [28]) of the same compound?
The IC50 was 3360 nM.

What about the Activity (MDA-MB-231 [29]) of the same compound?
Its Activity is 1.67%.

What about the Activity (MDA-MB-231 [30]) of the same compound?
The Activity was 11.2%.

And the “Ratio IC50” value [31]?
The value was 12.56.

And the Activity (MDA-MB-231 [32])?
The Activity was 13.1%.

And the IC50 at 72 h [33]?
The IC50 at 72 h was 18600 nM.
